Consider one molecule from paper PMC6934184, “Selective DNA-PKcs inhibition extends the therapeutic index of localized radiotherapy and chemotherapy” (The Journal of Clinical Investigation, 2019).

This test has as its target T1, ADRBK1 (GRK2) (Homo sapiens, UniProt P25098).
T1 construct: purchased Thermo Fisher Scientific (Life Technologies) SelectScreen
The test is described as follows: SelectScreen Z'LYTE. It counts as biochemical. The essentials: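 SelectScreen broad panel; activity (Z'LYTE, Adapta) plus binding formats. ATP: Km app for CSF1R Z'LYTE; 10 for CAMK1 Adapta. Readout = % per kinase.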

T1 sequence (P25098 whole entry): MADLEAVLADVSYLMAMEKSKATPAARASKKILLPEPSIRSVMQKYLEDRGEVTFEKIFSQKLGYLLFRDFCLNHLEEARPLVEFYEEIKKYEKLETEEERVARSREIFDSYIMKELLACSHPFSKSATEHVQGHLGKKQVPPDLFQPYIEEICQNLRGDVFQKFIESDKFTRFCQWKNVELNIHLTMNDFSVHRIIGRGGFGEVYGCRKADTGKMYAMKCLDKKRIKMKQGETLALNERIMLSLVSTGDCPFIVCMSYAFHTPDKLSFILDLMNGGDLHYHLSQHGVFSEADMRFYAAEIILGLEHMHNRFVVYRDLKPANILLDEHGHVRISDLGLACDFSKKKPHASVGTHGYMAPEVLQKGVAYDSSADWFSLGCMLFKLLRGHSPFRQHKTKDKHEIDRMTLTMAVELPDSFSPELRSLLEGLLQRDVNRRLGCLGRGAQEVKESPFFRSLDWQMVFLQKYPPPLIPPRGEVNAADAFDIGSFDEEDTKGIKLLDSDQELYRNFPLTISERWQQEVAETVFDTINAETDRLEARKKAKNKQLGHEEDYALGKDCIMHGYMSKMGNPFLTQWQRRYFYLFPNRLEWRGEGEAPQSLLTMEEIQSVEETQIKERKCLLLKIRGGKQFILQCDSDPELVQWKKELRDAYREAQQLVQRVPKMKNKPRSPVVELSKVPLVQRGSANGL

The inhibition is the drop in the measured response relative to a control, in per cent. In the case of `CN(C(=O)CN1CCOCC1)c1ccc2sc3c(-c4cccc5c(=O)cc(N6CC7CCC(C6)O7)oc45)cccc3c2c1` [NU5455], the inhibition at 1 µM was -2%.
